In patent US6461997B1, “Triazole sulfones having herbicidal activity” (Monsanto Technology LLC, priority 1999, dated 2002):

How the values were obtained:
[1] = system: SOLNI (black nightshade); experiment: Pre-emergence herbicidal activity, warm season; assay type: in vivo, Solanum nigrum; details: GR80 = lowest tested rate (300, 100, 30, 10 g/ha) with 80% or greater inhibition; approx. 14 days after treating; 30/21° C.
Procedure, shortened: (§1)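 GR80 values derive from percent inhibition relative to untreated plants, read roughly 14 days after sowing and pre-emergence soil-surface treatment (compound in 50:50 acetone/water; rates typically 10, 30, 100, 300 g/ha). Warm-season weeds grew at 30/21° C day/night, cool-season ones at 18/13° C; an asterisk marks activity without reaching 80% at the highest rate.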

[2] = system: CHEAL (common lambsquarters); experiment: Pre-emergence herbicidal activity, warm season; assay type: in vivo, Chenopodium album; details: GR80 = lowest tested rate (300, 100, 30, 10 g/ha) with 80% or greater inhibition; approx. 14 days after treating; 30/21° C.
Procedure, shortened: as §1

[3] = system: SETFA (giant foxtail); experiment: Pre-emergence herbicidal activity, warm season; assay type: in vivo, Setaria faberi; details: GR80 = lowest tested rate (300, 100, 30, 10 g/ha) with 80% or greater inhibition; approx. 14 days after treating; 30/21° C.
Procedure, shortened: as §1

[4] = system: GALAP (catchweed bedstraw); experiment: Pre-emergence herbicidal activity, cool season; assay type: in vivo, Galium aparine; details: lowest tested rate with 80% or greater inhibition; rates 300, 100, 30, 10 g/ha; about 14 days
Procedure, shortened: as §1

[5] = system: LAMPU (purple deadnettle); experiment: Pre-emergence herbicidal activity, cool season; assay type: in vivo, Lamium purpureum; details: lowest tested rate with 80% or greater inhibition; rates 300, 100, 30, 10 g/ha; about 14 days
Procedure, shortened: as §1

[6] = system: ABUTH (velvetleaf); experiment: Pre-plant incorporated (PPI) herbicidal activity, warm season; assay type: in vivo, Abutilon theophrasti; details: for Percent inhibition ABUTH: PPI application
Procedure, shortened: (§2)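 Incorporation into cover soil: a known compound amount, dissolved or suspended in organic solvent, was sprayed onto it and mixed before layering over sown seeds. Plants grew under greenhouse conditions (30/21° C warm season; 18/13° C cool season, greenhouse or growth chamber). Rated ~14 days later as % inhibition.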

[7] = system: SOLNI (black nightshade); experiment: as above; assay type: in vivo, Solanum nigrum; details: for Percent inhibition SOLNI: PPI application
Procedure, shortened: as §2

[8] = system: SETFA (giant foxtail); experiment: as above; assay type: in vivo, Setaria faberi; details: for Percent inhibition SETFA: PPI application
Procedure, shortened: as §2

[9] = system: SINAR (wild mustard); experiment: Pre-plant incorporated (PPI) herbicidal activity, cool season; assay type: in vivo, Sinapis arvensis; details: for Percent inhibition SINAR: weed, PPI application
Procedure, shortened: as §2

[10] = system: BROTE (downy brome); experiment: as above; assay type: in vivo, Bromus tectorum; details: for Percent inhibition BROTE: weed, PPI application
Procedure, shortened: as §2

[11] = system: oilseed rape (BRSNS); experiment: Selectivity test, PPI, cool season crop; assay type: in vivo, Brassica napus; details: PPI application
Procedure, shortened: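 Percent inhibition relative to untreated controls, assessed roughly 14 days post-planting. Seeds were covered with a soil layer into which solvent-borne compound had been sprayed and mixed. Plants were then grown at 30/21° C. (warm season) or 18/13° C. (cool season) day/night regimes.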

[12] = pre-plant incorporated, GR80 = lowest tested rate with 80% or greater inhibition, approx. 14 days after treating, 30/21° C.
[13] = pre-plant incorporated, lowest tested rate with 80% or greater inhibition, about 14 days

Row | SMILES | Pre-emergence activity (GR80) SOLNI [1] [g/ha] | Pre-emergence activity (GR80) CHEAL [2] [g/ha] | Pre-emergence activity (GR80) SETFA [3] [g/ha] | Pre-emergence activity GR80, GALAP [4] | Pre-emergence activity GR80, LAMPU [5] [g/ha] | Percent inhibition ABUTH ([6]; 30 g/ha) [%] | Percent inhibition ABUTH ([6]; 100 g/ha) [%] | Percent inhibition ABUTH ([6]; 300 g/ha) [%] | Percent inhibition ABUTH ([6]; 900 g/ha) [%] | Percent inhibition SOLNI ([7]; 30 g/ha) [%] | Percent inhibition SOLNI ([7]; 100 g/ha) [%] | Percent inhibition SOLNI ([7]; 300 g/ha) [%] | Percent inhibition SOLNI ([7]; 900 g/ha) [%] | Percent inhibition SETFA ([8]; 30 g/ha) [%] | Percent inhibition SETFA ([8]; 100 g/ha) [%] | Percent inhibition SETFA ([8]; 300 g/ha) [%] | Percent inhibition SETFA ([8]; 900 g/ha) [%] | Percent inhibition SINAR ([9]; 30 g/ha) [%] | Percent inhibition SINAR ([9]; 100 g/ha) [%] | Percent inhibition SINAR ([9]; 300 g/ha) [%] | further results
1 | CCN(CC)C(=O)n1cnc(S(=O)(=O)C(F)(F)F)n1 [Example 2] | 300 | 100 | 100 | 100 g/ha | 10 | 0 | 0 | 20 | 75 | 30 | 90 | 100 | 90 | 20 | 100 | 100 | 90 | 10 | 100 | 100 | Percent inhibition SINAR ([9]; 900 g/ha): 100%; Percent inhibition BROTE ([10]; 30 g/ha): 0%; Percent inhibition BROTE ([10]; 100 g/ha): 40%; Percent inhibition BROTE ([10]; 300 g/ha): 50%; Percent inhibition BROTE ([10]; 900 g/ha): 100%; Percent inhibition BRSNS ([11]; 30 g/ha): 0%; Percent inhibition BRSNS ([11]; 100 g/ha): 80%; Percent inhibition BRSNS ([11]; 300 g/ha): 100%; Percent inhibition BRSNS ([11]; 900 g/ha): 100%
2 | C=C(CC(F)(F)S(=O)(=O)c1ncn(C(=O)N(CC)CC)n1)C[Si](C)(C)C [Example 20] | 100 | 300 | 100 | [empty] | 100 | 0 | 0 | 30 | 80 | 0 | 0 | 30 | 100 | 70 | 99 | 90 | 100 | 80 | 80 | 60 | Percent inhibition ABUTH ([6]; 10 g/ha): 0%; PPI activity (GR80) ABUTH [6, 12]: 300 g/ha; Percent inhibition SOLNI ([7]; 10 g/ha): 0%; PPI activity (GR80) SOLNI [7, 12]: 100 g/ha; Percent inhibition SETFA ([8]; 10 g/ha): 0%; PPI activity GR80, SETFA [8, 13]: 100 g/ha; PPI activity GR80, SINAR [9, 13]: * (activity observed, at least at highest rate, but <80% inhibition); Percent inhibition SINAR ([9]; 10 g/ha): 30%; Percent inhibition SINAR ([9]; 900 g/ha): 70%; PPI activity GR80, BROTE [10, 13]: 300 g/ha; Percent inhibition BROTE ([10]; 10 g/ha): 0%; Percent inhibition BROTE ([10]; 30 g/ha): 0%; Percent inhibition BROTE ([10]; 100 g/ha): 0%; Percent inhibition BROTE ([10]; 300 g/ha): 40%; Percent inhibition BROTE ([10]; 900 g/ha): 50%; Percent inhibition BRSNS ([11]; 10 g/ha): 0%; Percent inhibition BRSNS ([11]; 30 g/ha): 20%; Percent inhibition BRSNS ([11]; 100 g/ha): 20%; Percent inhibition BRSNS ([11]; 300 g/ha): 60%; Percent inhibition BRSNS ([11]; 900 g/ha): 95%
3 | CCN(CC)C(=O)n1cnc(S(=O)(=O)C(F)(F)Cl)n1 [Example 3] | 100 | 100 | 100 | 100 g/ha | 100 | 0 | 0 | 30 | 60 | 70 | 100 | 100 | 100 | 100 | 100 | 100 | 100 | 100 | 100 | 100 | Percent inhibition SINAR ([9]; 900 g/ha): 100%; Percent inhibition BROTE ([10]; 30 g/ha): 0%; Percent inhibition BROTE ([10]; 100 g/ha): 30%; Percent inhibition BROTE ([10]; 300 g/ha): 90%; Percent inhibition BROTE ([10]; 900 g/ha): 95%; Percent inhibition BRSNS ([11]; 30 g/ha): 100%; Percent inhibition BRSNS ([11]; 100 g/ha): 100%; Percent inhibition BRSNS ([11]; 300 g/ha): 100%; Percent inhibition BRSNS ([11]; 900 g/ha): 100%
